{
  "source": "patent US20250281499A1",
  "about": "“FUSED AMINO PYRIMIDINE COMPOUNDS FOR TREATMENT OF NEUROPATHIC AND NEURO-INFLAMMATORY PAIN” (Ovid Therapeutics Inc., priority 2024, published 2025)",
  "target": "T1, KCC4 (Homo sapiens, UniProt Q9Y666)",
  "T1 construct": "expressed in transfected cells; host or cells: HEK-293",
  "T1 sequence (Q9Y666 1-1083)": "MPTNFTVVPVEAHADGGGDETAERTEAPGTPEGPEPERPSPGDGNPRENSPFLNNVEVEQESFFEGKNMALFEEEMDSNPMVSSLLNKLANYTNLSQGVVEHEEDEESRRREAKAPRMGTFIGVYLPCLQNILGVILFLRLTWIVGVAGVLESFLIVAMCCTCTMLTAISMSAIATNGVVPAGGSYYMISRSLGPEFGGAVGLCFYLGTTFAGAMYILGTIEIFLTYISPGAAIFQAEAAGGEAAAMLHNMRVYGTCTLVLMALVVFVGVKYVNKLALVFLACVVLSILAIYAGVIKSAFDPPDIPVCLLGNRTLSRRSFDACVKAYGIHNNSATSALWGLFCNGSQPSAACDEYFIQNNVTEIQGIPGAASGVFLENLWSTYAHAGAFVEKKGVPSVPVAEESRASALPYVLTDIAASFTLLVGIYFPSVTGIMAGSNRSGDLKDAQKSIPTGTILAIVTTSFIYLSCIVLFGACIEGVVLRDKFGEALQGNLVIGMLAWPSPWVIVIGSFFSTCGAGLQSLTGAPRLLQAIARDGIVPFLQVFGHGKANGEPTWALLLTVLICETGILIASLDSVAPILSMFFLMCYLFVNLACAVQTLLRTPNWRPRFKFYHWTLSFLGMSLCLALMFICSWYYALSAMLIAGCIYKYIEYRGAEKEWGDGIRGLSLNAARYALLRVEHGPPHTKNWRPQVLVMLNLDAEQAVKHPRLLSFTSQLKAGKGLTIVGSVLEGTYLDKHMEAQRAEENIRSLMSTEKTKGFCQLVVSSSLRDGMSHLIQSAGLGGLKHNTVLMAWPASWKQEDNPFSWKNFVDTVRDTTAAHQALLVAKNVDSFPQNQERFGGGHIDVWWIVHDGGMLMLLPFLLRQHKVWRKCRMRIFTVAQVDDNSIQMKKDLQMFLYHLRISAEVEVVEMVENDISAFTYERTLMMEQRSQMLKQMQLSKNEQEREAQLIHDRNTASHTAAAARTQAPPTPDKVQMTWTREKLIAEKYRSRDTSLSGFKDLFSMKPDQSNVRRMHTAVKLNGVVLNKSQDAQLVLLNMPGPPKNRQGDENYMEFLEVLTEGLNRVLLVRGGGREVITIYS",
  "assay": "Tl+ flux assay, HEK-293 cells expressing KCC4",
  "type": "cell-based",
  "conditions": "read-out: concentration at which effects on KCC4 were seen (EC50, FIG. 1G)",
  "protocol": "FLIPR TI Flux assay. HEK-293 cells were washed with HBSS, and then incubated with loading buffer containing TI sensitive fluorescent dye (https://www.moleculardevices.com), 20 μM bumetanide 20 μM ouabain and 2.5 mM probenecid for 1 h at room temperature (RT) under control conditions or with drugs in the dark using a FlexStation 3 microplate reader (Molecular Devices) and imaged […] for 30 min. Stimulus buffer was added containing 5 mM K^+/0.5 mM Tl^+ and cells were imaged every 1.5 over a 190 second time course The initial rate Tl^+ uptake (Relative Fluorescence Units (RFU) per second) was determined following addition of the stimulus buffer as outlined previously (Conway et al., 2017, supra) (Lee et al., 2022, supra).\nSeveral studies have shown that the activity and plasma membrane accumulation of KCC2 is potentiated via phosphorylation of S940, a process mediated by the activity of protein kinase C and protein phosphatase 1 (Lee et al, 2011, supra; Lee et al., J Biol Chem 282, 29777-29784 (2007); Moore et al., Proc. Natl. Acad. Sci. U.S.A 115, 10166-10171 (2018); Moore et al., Trends Neurosci. 40, 555-571 (2017); Silayeva et al., Proc. Natl. Acad. Sci. U.S.A. 112, 3523-3528 (2015)). […] Compared to KCC2, effects on KCC3, KCC4, and NKCC1 were only seen at concentrations more than 35-fold that of KCC2 (>100 μM) (FIG. 1G).",
  "data": [
    {"smiles": "C[C@@H]1CN(c2nc3c(c(Nc4ccc(C5CCCCC5)cc4)n2)COC3)CCO1", "note": "[Compound A, (R)—N-(4-cyclohexylphenyl)-2-(2-methylmorpholino)-5,7-dihydrofuro[3,4-d]pyrimidin-4-amine]", "values": [
      {"measurement": "EC50", "value": "> 100", "unit": "µM"}
    ]}
  ]
}
